The text below walks through data of US20230183169A1, “AROMATIC COMPOUND, PREPARATION METHOD THEREFOR AND USE THEREOF IN DRUG” (SICHUAN ACADEMY OF MEDICAL SCIENCES - SICHUAN PROVINCIAL …, priority 2020, published 2023).

In one data set the test system is male SD rats. Briefly: Subcutaneous infiltration anesthesia in rats (acupuncture stimulation of back skin). The data set is classed as in vivo, rat. The settings on record: 0.4 mL subcutaneous. The method, then:
The compounds of the examples were dissolved in water for injection to a concentration of 0.2-0.5 g/100 mL (0.2-0.5%), or mixed with commercially-available clinically-common local anesthetic drugs to prepare a mixed solution with a specific proportion, and the 0.75% levobupivacaine was used as the positive control compound. The experimental method was as follows: male SD rats weighing 180-300 g were shaved off back hair 1 day before the experiment, and a circular skin area with a diameter of 4 cm was exposed. 0.4 mL of the drug solution was subcutaneously injected to the exposed circular center on the back using a 1 mL syringe to form a skin mound. After 1 minute, the first measurement was performed. Each of 8 random parts around the center of the injection site was stimulated once by acupuncture of 15 g force using a 26G needle (the stimulation site was no more than 1 cm away from the injection center). […] If there was no such behavior, it was considered that the local anesthetic effect existed. […] Except for the first measurement, the measurement was performed every 2 hours within 12 hours after the administration, and every 6 hours after 12 hours after the administration. 8 rats were used for each drug for the experiment.

In data set [1] the test system is left sciatic nerve of rats. Briefly: Sciatic nerve blocking experiment in rats (Von Frey filaments 60 g). The data set is classed as in vivo, rat. The method, then:
The compounds of the examples were dissolved in water for injection to a concentration of 0.5-2.0 g/100 mL (0.5%-2%), or mixed with commercially-available clinically-common local anesthetic drugs to prepare a mixed solution with a specific proportion, and the 0.75% levobupivacaine was used as the positive control compound. The experimental method was as follows: male SD rats weighing 180-300 g were anesthetized with isoflurane, 0.2 mL of the drug-containing solution was injected near the left sciatic nerve of rats, and 8 rats were used for each drug for the experiment. After the rats woke up, the first measurement was performed, and then the measurement was performed every 2 hours. If there was still an anesthetic effect after six measurements, the measurement was performed every 6 hours until the anesthetic effect disappeared. The method for judging the existence of anesthetic effect was as follows. The skin of the sole and lateral surface of the hindlimb of the rat on the side injected with the drug was stimulated using Von Frey filaments (60 g). […] If there was no such behavior, it was considered that the local anesthetic effect existed.

The test system of the next data set is rats. In words: Mortality rate after injection of drugs through tail vein. In kind it is in vivo, rat. The settings on record: 0.2% aqueous solution, 0.4 mL through tail vein, 10 rats. Here is the method: 0.2% aqueous solution of the compounds of the present invention and 0.75% levobupivacaine solution were injected into the rats through tail vein in 0.4 mL, and the mortality rate was observed. Each drug was injected into 10 rats (half male and half female, weighing 290-310).

For data set [2] the following is noted: background, literature; cited from earlier work.
The mark [3] stands for this setting: 0.15 + 0.35% bupivacaine hydrochloride.
Where [4] appears, read: 0.5%, 0.2 mL near left sciatic nerve.
The mark [5] stands for this setting: 0.5 + 0.35% bupivacaine hydrochloride, 0.2 mL near sciatic nerve.
[6] abbreviates: 1.0%, 0.2 mL near left sciatic nerve.
Where [7] appears, read: 2.0%, 0.2 mL near left sciatic nerve.
[8] abbreviates: 0.15 + 0.15% tetracaine hydrochloride.
[9] abbreviates: 0.5 + 0.15% tetracaine hydrochloride, 0.2 mL near sciatic nerve.

Take `CC[N+](CC)(CC)CC(=O)Nc1c(C)cc(OC(C)C)cc1C` [Compound 15]: the “Duration of local anesthesia” value in the data set with male SD rats (setting [3]) lay in the range of 36 to 42 h; with male SD rats (0.2%, rat back) it was 24 to 30 h; in the data set on male SD rats (0.5%, rat back), 42 to 54 h; in data set [1] (setting [4]), 12 to 18 h; in data set [1] (setting [5]), 30 to 42 h; in data set [1] (setting [6]), 24 to 36 h. For the same molecule, the “Duration of local anesthesia” value in data set [1] (setting [7]) lay in the range of 120 to 144 h. Further, in the data set on rats, the Mortality rate % stood at 0%.
In the case of `CCN(CC)CC(=O)Nc1c(C)cccc1C` [lidocaine], the “Duration of local anesthesia” value in data set [2] was 2 h.
As for `CC[N+](CC)(CC)CC(=O)Nc1c(C)cc(OC(C)=O)cc1C` [Compound 3], the “Duration of local anesthesia” value lay within 18 to 24 h with male SD rats (setting [3]); 8 to 14 h in the data set with male SD rats (0.2%, rat back); 12 to 18 h in the data set with male SD rats (0.5%, rat back); 10 to 12 h in data set [1] (setting [4]); 24 to 36 h in data set [1] (setting [5]); 18 to 30 h in data set [1] (setting [6]). Also, the “Duration of local anesthesia” value in data set [1] (setting [7]) was in the range of 54 to 96 h. The Mortality rate % in the data set on rats is listed as 0%.
As for `CCCCCCOc1cc(C)c(NC(=O)C[N+](CC)(CC)CC)c(C)c1` [Compound 17], the “Duration of local anesthesia” value with male SD rats (setting [3]) lay within 54 to 72 h; in the data set with male SD rats (0.2%, rat back), 36 to 48 h; with male SD rats (0.5%, rat back), 54 to 60 h; in data set [1] (setting [4]), 24 to 42 h; in data set [1] (setting [5]) it was 48 to 66 h; in data set [1] (setting [6]), 42 to 66 h. For the same molecule, in data set [1] (setting [7]), the “Duration of local anesthesia” value is 96 to 144 h. In addition, the Mortality rate % with rats came to 0%.
Take `CC[N+](CC)(CCO)CC(=O)Nc1c(C)cc(OCCCCN2CCCCC2C(=O)Nc2c(C)cccc2C)cc1C` (centres unmarked) [Compound 53]: the “Duration of local anesthesia” value lay in the range of 36 to 48 h in the data set with male SD rats (setting [8]); 24 to 30 h with male SD rats (0.2%, rat back); 48 to 54 h in the data set on male SD rats (0.5%, rat back); 30 to 36 h in data set [1] (setting [4]); 42 to 66 h in data set [1] (setting [9]); 42 to 54 h in data set [1] (setting [6]). Besides, in data set [1] (setting [7]), the “Duration of local anesthesia” value lay in the range of 72 to 84 h. Moreover, the Mortality rate % with rats was 0%.
As for `CCCC(=O)Oc1cc(C)c(NC(=O)C2CCCC[N+]2(C)CCC)c(C)c1` (centres unmarked) [Compound 33], the “Duration of local anesthesia” value with male SD rats (setting [8]) lay in the range of 66 to 84 h; in the data set on male SD rats (0.2%, rat back), 36 to 54 h; in the data set with male SD rats (0.5%, rat back), 60 to 72 h; in data set [1] (setting [4]) it was 24 to 30 h; in data set [1] (setting [9]), 60 to 84 h; in data set [1] (setting [6]), 48 to 66 h. In addition, the “Duration of local anesthesia” value in data set [1] (setting [7]) fell in the range of 120 to 144 h. The molecule further registered a Mortality rate % in the data set with rats of 0%.
Consider `CC[N+](CC)(CC)CC(=O)Nc1c(C)cc(OC(=O)OCCCN2CCCCC2C(=O)Nc2c(C)cccc2C)cc1C` (centres unmarked) [Compound 48], for which the “Duration of local anesthesia” value in the data set on male SD rats (setting [8]) lay within 66 to 72 h; in the data set with male SD rats (0.2%, rat back) it was 36 to 54 h; in the data set on male SD rats (0.5%, rat back) it was 60 to 78 h; in data set [1] (setting [4]) it was 24 to 36 h; in data set [1] (setting [9]), 60 to 72 h; in data set [1] (setting [6]), 54 to 72 h. Besides, in data set [1] (setting [7]), the “Duration of local anesthesia” value fell in the range of 120 to 160 h. Also, the Mortality rate % with rats turned out to be 0%.
With `CCCCCN(C)CC(=O)Oc1cc(C)c(NC(=O)C[N+](CC)(CC)CC)c(C)c1` [Compound 28], the “Duration of local anesthesia” value with male SD rats (0.15 + 0.35% lidocaine hydrochloride) is 54 to 66 h; in the data set with male SD rats (0.2%, rat back), 36 to 48 h; in the data set with male SD rats (0.5%, rat back), 54 to 72 h; in data set [1] (setting [4]), 30 to 36 h; in data set [1] (0.5 + 0.35% lidocaine hydrochloride, 0.2 mL near sciatic nerve), 48 to 54 h; in data set [1] (setting [6]), 48 to 60 h. Also, the “Duration of local anesthesia” value in data set [1] (setting [7]) lay within 120 to 144 h. In addition, the Mortality rate % in the data set with rats is 0%.
Turning to `CC[N+](CC)(CC)CC(=O)Nc1c(C)cc(O)cc1C` [Compound 1], the “Duration of local anesthesia” value in the data set with male SD rats (setting [3]) lay in the range of 24 to 30 h; in the data set with male SD rats (0.2%, rat back) it was 6 to 8 h; with male SD rats (0.5%, rat back), 10 to 12 h; in data set [1] (setting [4]), 4 to 10 h; in data set [1] (setting [5]), 18 to 30 h; in data set [1] (setting [6]), 12 to 18 h. Moreover, the “Duration of local anesthesia” value in data set [1] (setting [7]) was in the range of 30 to 48 h. In the data set on rats, the Mortality rate % was determined as 0%.
